In article PMC6325219, “Preclinical Characterization of NVR 3-778, a First-in-Class Capsid Assembly Modulator against Hepatitis B Virus” (Antimicrobial Agents and Chemotherapy, 2018):
pEC50: −log10 of the molar value. Where two headings read alike, the source gives them in different places.

Tests used:
HBV GT D = experiment: Transient-transfection antiviral study in HepG2 cells, GT D; format: cell-based; settings: Hepatitis B virus, HepG2, 72 h, read-out: EC50 (mean), HBV GT D
Procedure: (§2) Cells were cotransfected with the HBV plasmids (100 ng/well) and a Gaussia expression plasmid (10 ng/well) (Thermo Scientific) using the Lipofectamine LTX Plus transfection reagent (Life Technologies). Transfection mixtures were removed after overnight incubation, and cells were treated with serially diluted NVR 3-778 at a final dimethyl sulfoxide (DMSO) concentration of 0.5%. After 3 days of incubation with the compound, the supernatants were collected and secreted Gaussia luciferase was measured using a Gaussia Flash luciferase assay kit (Thermo Scientific). […] Samples were diluted into lysis buffer (Affymetrix) containing 2.5 µg proteinase K (Affymetrix) at 50°C for 40 min. Intracellular encapsidated HBV DNA was denatured for 30 min at 25°C in 0.2 M NaOH (Sigma) and incubated with HBV DNA probes designed to hybridize to the minus-strand HBV DNA (Affymetrix). The denatured DNA was subsequently detected using a QuantiGene assay kit, according to the branched DNA (bDNA) assay recommended by the manufacturer (Affymetrix).

HBV GT F = experiment: Transient-transfection antiviral study in HepG2 cells, GT F; format: cell-based; settings: Hepatitis B virus, HepG2, 72 h, read-out: EC50 (mean), HBV GT F
Procedure: as §2

[1] = 28-day twice-daily oral gavage pharmacokinetics in CD1 mice; format: in vivo; settings: for Cmax / half-life / AUC(0-t) / Tmax: CD1, mouse, plasma, po; for AUC(0-t): after second daily dose, read-out: AUC0–12; for Tmax: relative to second daily dose
Procedure: Fed male and female CD1 mice (36/sex/group) were dosed twice a day (BID) by oral gavage with 50, 150, and 500 mg/kg of body weight/dose of NVR 3-778 for 28 days. At different time points after dosing, plasma was analyzed for NVR 3-778 concentration by liquid chromatography-tandem mass spectrometry (LC-MS/MS).
In vivo pharmacokinetics studies were performed at Covance Laboratories (Madison, Wisconsin), accredited by the Association for Assessment and Accreditation of Laboratory Animal Care (AAALAC). All procedures in the protocols were in compliance with applicable animal welfare acts and were approved by the local Institutional Animal Care and Use Committee (IACUC). For the 28-day study in mice, male and female mice were 6 to 7 weeks old at the initiation of dosing. Environmental conditions, diet, and water were typical for pharmacokinetic and tolerability studies. NVR 3-778 was dosed in a vehicle of 0.5% (wt/vol) hydroxypropyl methylcellulose (Methocel E50 premium)--1% (wt/vol) polysorbate 80 (Tween 80) in reverse osmosis water. Blood samples were collected at 0.25, 0.5, 1, 3, 6, and 12 h after dosing on day 1 and on day 28 of the study into potassium (K2) EDTA. Plasma was harvested and stored at −80°C.

[2] = Oral bioavailability and pharmacokinetics in beagle dogs; format: in vivo; settings: for AUC(0-inf): read-out: AUC0–inf (mean)
Procedure: After a 7-day washout period, the same two dogs were administered NVR 3-778 by a single oral gavage of the same formulation at 1.5 mg/kg. Blood samples were collected at 0 (predose), 2 min (for the i.v. group only), 5 min, 15 min, and 0.5, 1, 3, 6, 9, and 24 h postdose. The concentration of NVR 3-778 in plasma samples was determined using LC-MS/MS methods.

plasma proteins [3] = experiment: Plasma protein binding by equilibrium dialysis, rat; format: in vitro ADME; settings: 2 µM
Excerpt: (§1) The binding of NVR 3-778 to the plasma proteins of mouse, rat, dog, monkey, and human was investigated by equilibrium dialysis.

plasma proteins [4] = experiment: Plasma protein binding by equilibrium dialysis, human; format: in vitro ADME; settings: 2 µM
Excerpt: as §1

HBV = system: HBV; design: method as in PMID 30181376; settings: metabolically active primary human hepatocytes; cited from earlier work
β-actin mRNA = experiment: Host β-actin mRNA in PHH during de novo infection study; format: cell-based, human; settings: 11 days, highest concentration tested 30 μM
Procedure: Cryopreserved PHH (Life Technologies) were seeded at 40,000 cells/well 1 day before infection. The HBV inoculum, concentrated from the supernatants of HepG2.2.15 cells, was prepared at 200 genome equivalents/cell in PHH medium (DMEM containing 10% FBS and a supplement cocktail containing HEPES, L-proline, insulin epidermal growth factor, dexamethasone, and ascorbic acid-2-phosphate, as previously described) with 2% DMSO and 4% polyethylene glycol (PEG) 8000 (Sigma). Compounds were serially diluted in DMSO at 50-fold strength and added to PHH medium containing the HBV inoculum, prior to infecting the PHH. After overnight incubation, the infection mixtures were removed and the cells were replenished with PHH medium containing freshly diluted compounds. On day 5 and day 8 postinfection, the media containing the compounds were removed and the cells were replenished with PHH medium containing freshly diluted compounds. […] HBV DNA, HBsAg, and HBeAg were determined from the supernatants of infected PHH using bDNA assays (Affymetrix) and HBsAg or HBeAg chemiluminescence immunoassay kits (Autobio), as recommended by the manufacturers. Intracellular total HBV RNA mRNA and host mRNA levels were monitored by using the QuantiGene assays (Affymetrix) and probe sets that hybridized to the X region, which is common to all HBV transcripts, and the host β-actin mRNA, respectively.

[5] = female, 50 mg/kg, day 1, 50 mg/kg/dose BID oral gavage, F
[6] = female, 50 mg/kg, day 28, 50 mg/kg/dose BID oral gavage, F
[7] = female, 150 mg/kg, day 1, 150 mg/kg/dose BID oral gavage, F
[8] = female, 150 mg/kg, day 28, 150 mg/kg/dose BID oral gavage, F
[9] = female, 500 mg/kg, day 1, 500 mg/kg/dose BID oral gavage, F
[10] = female, 500 mg/kg, day 28, 500 mg/kg/dose BID oral gavage, F
[11] = male, 50 mg/kg, day 1, 50 mg/kg/dose BID oral gavage, M
[12] = male, 50 mg/kg, day 28, 50 mg/kg/dose BID oral gavage, M
[13] = male, 150 mg/kg, day 1, 150 mg/kg/dose BID oral gavage, M
[14] = male, 150 mg/kg, day 28, 150 mg/kg/dose BID oral gavage, M
[15] = male, 500 mg/kg, day 1, 500 mg/kg/dose BID oral gavage, M
[16] = male, 500 mg/kg, day 28, 500 mg/kg/dose BID oral gavage, M
[17] = dog, plasma, iv, single i.v. 0.5 mg/kg, two male beagle dogs
[18] = dog, plasma, single oral gavage 1.5 mg/kg, two male beagle dogs

O=C(Nc1cc(F)c(F)c(F)c1)c1ccc(F)c(S(=O)(=O)N2CCC(O)CC2)c1 [NVR 3-778]
pEC50 (HBV GT D): 6.37
pEC50 (HBV GT F): 6.25
Gender differences in NVR 3-778 exposure ([1]; CD1 mice, Cmax and AUC): less than 2 fold
Cmax ([1]; both sexes, 500 mg/kg, 28-day study, dosed orally at 500 mg/kg BID, 100 µM = 43.2 µg/ml, read-out: Mean Cmax (serum/plasma level reached in mice)): > 100 µM
half-life [1, 5]: 2.2 h
AUC(0-t) [1, 5]: 60.1 µg·h/mL
Cmax ([1]; female, 50 mg/kg, day 1, 50 mg/kg/dose BID oral gavage, F, read-out: Cmax): 11700 ng/mL
Tmax [1, 5]: 0.5 h
AUC(0-t) [1, 6]: 78.8 µg·h/mL
Cmax ([1]; female, 50 mg/kg, day 28, 50 mg/kg/dose BID oral gavage, F, read-out: Cmax): 11500 ng/mL
Tmax [1, 6]: 3 h
half-life [1, 7]: 4.35 h
AUC(0-t) [1, 7]: 131 µg·h/mL
Cmax ([1]; female, 150 mg/kg, day 1, 150 mg/kg/dose BID oral gavage, F, read-out: Cmax): 22000 ng/mL
Tmax [1, 7]: 0.5 h
half-life [1, 8]: 2.48 h
AUC(0-t) [1, 8]: 171 µg·h/mL
Cmax ([1]; female, 150 mg/kg, day 28, 150 mg/kg/dose BID oral gavage, F, read-out: Cmax): 26600 ng/mL
Tmax [1, 8]: 1 h
AUC(0-t) [1, 9]: 315 µg·h/mL
Cmax ([1]; female, 500 mg/kg, day 1, 500 mg/kg/dose BID oral gavage, F, read-out: Cmax): 41400 ng/mL
Tmax [1, 9]: 0.5 h
AUC(0-t) [1, 10]: 354 µg·h/mL
Cmax ([1]; female, 500 mg/kg, day 28, 500 mg/kg/dose BID oral gavage, F, read-out: Cmax): 40800 ng/mL
Tmax [1, 10]: 3 h
AUC(0-t) [1, 11]: 70.4 µg·h/mL
Cmax ([1]; male, 50 mg/kg, day 1, 50 mg/kg/dose BID oral gavage, M, read-out: Cmax): 12700 ng/mL
Tmax [1, 11]: 1 h
AUC(0-t) [1, 12]: 87.3 µg·h/mL
Cmax ([1]; male, 50 mg/kg, day 28, 50 mg/kg/dose BID oral gavage, M, read-out: Cmax): 11900 ng/mL
Tmax [1, 12]: 3 h
half-life [1, 13]: 5 h
AUC(0-t) [1, 13]: 166 µg·h/mL
Cmax ([1]; male, 150 mg/kg, day 1, 150 mg/kg/dose BID oral gavage, M, read-out: Cmax): 25300 ng/mL
Tmax [1, 13]: 1 h
AUC(0-t) [1, 14]: 157 µg·h/mL
Cmax ([1]; male, 150 mg/kg, day 28, 150 mg/kg/dose BID oral gavage, M, read-out: Cmax): 24200 ng/mL
Tmax [1, 14]: 1 h
AUC(0-t) [1, 15]: 406 µg·h/mL
Cmax ([1]; male, 500 mg/kg, day 1, 500 mg/kg/dose BID oral gavage, M, read-out: Cmax): 43000 ng/mL
Tmax [1, 15]: 1 h
half-life [1, 16]: 3.15 h
AUC(0-t) [1, 16]: 375 µg·h/mL
Cmax ([1]; male, 500 mg/kg, day 28, 500 mg/kg/dose BID oral gavage, M, read-out: Cmax): 43800 ng/mL
Tmax [1, 16]: 3 h
Circulating species in plasma ([1]; mice, oral gavage): predominant circulating molecule
clearance [2, 17]: 6.1 mL/min/kg
AUC(0-inf) [2, 17]: 1.38 µg·h/mL
half-life ([2]; dog, plasma, iv, single i.v. 0.5 mg/kg, two male beagle dogs, read-out: Mean terminal half-life (converted)): 4.1 h
Vd ([2]; dog, plasma, iv, single i.v. 0.5 mg/kg, two male beagle dogs, read-out: Volume of distribution at steady state (Vss) (mean)): 1.7 L/kg
Cmax [2, 18]: 560 ng/mL
AUC(0-inf) [2, 18]: 3.5 µg·h/mL
Circulating species in plasma ([2]; dogs, oral gavage): predominant circulating molecule
bioavailability ([2]; male, dog, plasma, oral 1.5 mg/kg versus i.v. 0.5 mg/kg, beagle dogs): 84.6%
Mean percent binding to plasma proteins (plasma proteins [3]): approximately 91%
Mean percent binding to plasma proteins (plasma proteins [4]): approximately 98%
Increase in EC50 against HBV DNA replication in the presence of serum proteins (HBV): about 4 fold

Nc1ccn([C@@H]2CS[C@H](CO)O2)c(=O)n1 [LMV, lamivudine, reference compound]
CC50 (EC50), β-actin mRNA (β-actin mRNA): >30000 nM
CC90 (EC90 column), β-actin mRNA (β-actin mRNA): >30000 nM
